Results taken from ChEMBL document CHEMBL1131541, “New synthetic inhibitors of microtubule depolymerization” (1998).
The source made the active and inactive calls. The rule behind the calls is not given here.

How the values were obtained:
[1] = target: Tubulin beta chain (Bos taurus) (UniProt Q6B856); test: Compound was tested for its effect on microtubule stabilization isolated from bovine brain; not significant
A498 = test: Compound was tested for growth inhibitory activity against A498 cell line; assay type: functional; conditions: Homo sapiens
BT-549 = test: Compound was tested for growth inhibitory activity against BT-549 cell line; assay type: functional; conditions: Homo sapiens
COLO 205 = test: Compound was tested for growth inhibitory activity against COLO 205 cell line; assay type: functional; conditions: Homo sapiens
HL-60 = test: Compound was tested for growth inhibitory activity against HL-60 cell line; assay type: functional; conditions: Homo sapiens
HT-29 = test: Compound was tested for growth inhibitory activity against HT-29 cell line; assay type: functional; conditions: Homo sapiens
HOP-62 = test: Compound was tested for growth inhibitory activity against HOP-62 cell line; assay type: functional; conditions: Homo sapiens
HCC 2998 = test: Compound was tested for growth inhibitory activity against HCC2998 cell line; assay type: functional; conditions: Homo sapiens
Hs-578T = test: Compound was tested for growth inhibitory activity against HS 578T cell line; assay type: functional; conditions: Homo sapiens
NCI/ADR-RES = test: Compound was tested for growth inhibitory activity against MCF-7/ADR cell line; assay type: functional; conditions: Homo sapiens
MCF7 = test: Compound was tested for growth inhibitory activity against MCF-7 cell line; assay type: functional; conditions: Homo sapiens
MDA-MB-435 = test: Compound was tested for growth inhibitory activity against MDA-MB-435 cell line; assay type: functional; conditions: Homo sapiens
NCI-H522 = test: Compound was tested for growth inhibitory activity against NCI-H522 cell line; assay type: functional; conditions: Homo sapiens
OVCAR-3 = test: Compound was tested for growth inhibitory activity against OVCAR-3 cell line; assay type: functional; conditions: Homo sapiens
OVCAR-8 = test: Compound was tested for growth inhibitory activity against OVCAR-8 cell line; assay type: functional; conditions: Homo sapiens
PC-3 = test: Compound was tested for growth inhibitory activity against PC-3 cell line; assay type: functional; conditions: Homo sapiens
RXF 393 = test: Compound was tested for growth inhibitory activity against RXF 393 cell line; assay type: functional; conditions: Homo sapiens
SF-268 = test: Compound was tested for growth inhibitory activity against SF-268 cell line; assay type: functional; conditions: Homo sapiens
SK-MEL-2 [2] = test: Compound was tested for growth inhibitory activity against SK-MEL-2 cell line; assay type: functional; conditions: Homo sapiens
SF-539 = test: Compound was tested for growth inhibitory activity against SF-539 cell line; assay type: functional; conditions: Homo sapiens
SNB-19 = test: Compound was tested for growth inhibitory activity against SNB-19 cell line; assay type: functional; conditions: Homo sapiens
SR = test: Compound was tested for growth inhibitory activity against SR cell line; assay type: functional; conditions: Homo sapiens
SK-MEL-5 = test: Compound was tested for growth inhibitory activity against SK-MEL-5 cell line; assay type: functional; conditions: Homo sapiens
UO-31 = test: Compound was tested for growth inhibitory activity against UO-31 cell line; assay type: functional; conditions: Homo sapiens
U-251 = test: Compound was tested for growth inhibitory activity against U251 cell line; assay type: functional; conditions: Homo sapiens
NCI-H226 = test: Compound was tested for growth inhibitory activity against NCI-H226 cell line; assay type: functional; conditions: Homo sapiens
786-0 = test: Compound was tested for growth inhibitory activity against 786-0 cell line; assay type: functional; conditions: Homo sapiens
SF-295 = test: Compound was tested for growth inhibitory activity against SF-295 cell line; assay type: functional; conditions: Homo sapiens
SK-OV-3 = test: Compound was tested for growth inhibitory activity against SK-OV-3 cell line; assay type: functional; conditions: Homo sapiens
UACC-62 = test: Compound was tested for growth inhibitory activity against UACC-62 cell line; assay type: functional; conditions: Homo sapiens
HCT-15 = test: Compound was tested for growth inhibitory activity against HCT-15 cell line; assay type: functional; conditions: Homo sapiens
KM12 = test: Compound was tested for growth inhibitory activity against KM12 cell line; assay type: functional; conditions: Homo sapiens
M14 = test: Compound was tested for growth inhibitory activity against M14 cell line; assay type: functional; conditions: Homo sapiens
MOLT-4 = test: Compound was tested for growth inhibitory activity against MOLT-4 cell line; assay type: functional; conditions: Homo sapiens
SK-MEL-2 [3] = test: Compound was tested for growth inhibitory activity against SK-MEL-2; assay type: functional; conditions: Homo sapiens
[4] = target: Tubulin beta chain (Bos taurus) (UniProt Q6B856); test: Effect on microtubule stabilization isolated from bovine brain
[5] = target: Tubulin beta chain (Bos taurus) (UniProt Q6B856); test: Compound was tested for its effect on microtubule stabilization isolated from bovine brain; compound was inactive
[6] = target: Tubulin beta chain (Bos taurus) (UniProt Q6B856); test: Compound was tested for its effect on microtubule stabilization isolated from bovine brain; NS: not significant

Sequence of Tubulin beta chain (Bos taurus) (Q6B856 whole entry): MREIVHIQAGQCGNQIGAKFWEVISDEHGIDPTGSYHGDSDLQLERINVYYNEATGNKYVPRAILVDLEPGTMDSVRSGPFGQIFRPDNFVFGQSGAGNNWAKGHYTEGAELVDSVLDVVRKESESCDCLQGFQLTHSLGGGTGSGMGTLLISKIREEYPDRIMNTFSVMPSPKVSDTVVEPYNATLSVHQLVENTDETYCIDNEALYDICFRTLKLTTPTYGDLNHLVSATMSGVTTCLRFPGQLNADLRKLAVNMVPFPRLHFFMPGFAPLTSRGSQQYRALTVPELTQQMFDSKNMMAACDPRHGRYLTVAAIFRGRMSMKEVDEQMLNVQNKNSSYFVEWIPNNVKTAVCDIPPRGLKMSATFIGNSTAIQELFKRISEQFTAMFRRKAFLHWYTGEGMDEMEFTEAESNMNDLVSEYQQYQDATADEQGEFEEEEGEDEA

Row | GI50 (BT-549) [nM] | GI50 (COLO 205) [nM] | GI50 (HL-60) [nM] | GI50 (HT-29) [nM] | GI50 (HCC 2998) [nM] | GI50 (MCF7) [nM] | GI50 (MDA-MB-435) [nM] | GI50 (NCI-H522) [nM] | GI50 (OVCAR-3) [nM] | GI50 (OVCAR-8) [nM] | GI50 (PC-3) [nM] | Compound | GI50 (A498) [nM] | GI50 (HOP-62) [nM] | GI50 (Hs-578T) [nM] | GI50 (NCI/ADR-RES) [nM] | GI50 (RXF 393) [nM] | GI50 (SF-268) [nM] | GI50 (SF-539) [nM] | GI50 (SNB-19) [nM] | GI50 (SR) [nM] | further results
1 | – | – | – | – | – | – | – | – | – | – | – | C=C1C[C@@]23O[C@]2(c2ccccc21)C1CC(OC(=O)[C@H](O)[C@@H](NC(=O)CC(C)(C)C)c2ccccc2)C3(C)C1(C)C (stereo not given in full) | – | – | – | – | – | – | – | – | – | Relative stability [1]: inactive
2 | 6.31 | 3.16 | 5.01 | 2.51 | 3.98 | 3.16 | 2.51 | 3.16 | 3.16 | 5.01 | 3.98 | CC(=O)O[C@H]1C(=O)[C@@]2(C)[C@H]([C@H](OC(=O)c3ccccc3)[C@]3(O)C[C@H](OC(=O)[C@H](O)[C@@H](NC(=O)c4ccccc4)c4ccccc4)C(C)=C1C3(C)C)[C@]1(OC(C)=O)CO[C@@H]1C[C@@H]2O [PACLITAXEL] | 79.4 | 15.8 | 3.16 | 3160 | 7.94 | 7.94 | 3.16 | 10 | 2.51 | GI50 (SK-MEL-2 [2]): 5.01 nM; GI50 (SK-MEL-5): 3.98 nM; GI50 (UO-31): 1000 nM; GI50 (U-251): 3.98 nM; GI50 (NCI-H226): 31.6 nM; GI50 (786-0): 19.9 nM; GI50 (SF-295): 15.8 nM; GI50 (SK-OV-3): 10 nM; GI50 (UACC-62): 3.98 nM; GI50 (HCT-15): 200 nM; GI50 (KM12): 3.16 nM; GI50 (M14): 10 nM; GI50 (MOLT-4): 3.98 nM
3 | 22900 | 1860 | 871 | 447 | 525 | 2820 | 589 | 813 | 1860 | 2450 | 3020 | COC(=O)N[C@@H](c1ccncc1)[C@@H](O)C(=O)OC1CC2C(C)(C)C1(C)[C@@]13CC(C)c4ccccc4[C@@]21O3 (stereo not given in full) | 12300 | 6170 | 1480 | 1910 | 4570 | 3800 | 4680 | 2190 | 1450 | GI50 (SK-MEL-2 [3]): 2570 nM; GI50 (SK-MEL-5): 2340 nM; GI50 (UO-31): 562 nM; Relative stability [4]: -5%; GI50 (U-251): 3980 nM; GI50 (NCI-H226): 977 nM; GI50 (786-0): 2750 nM; GI50 (SF-295): 2090 nM; GI50 (SK-OV-3): 1910 nM; GI50 (UACC-62): 2630 nM; GI50 (HCT-15): 977 nM; GI50 (KM12): 933 nM; GI50 (M14): 1740 nM; GI50 (MOLT-4): 4680 nM
4 | – | – | – | – | – | – | – | – | – | – | – | C[C@@H]1C[C@@]23O[C@]2(c2ccccc21)C1CC(OC(=O)[C@H](O)[C@@H](NC(=O)OC(C)(C)C)c2ccccc2)C3(C)C1(C)C (stereo not given in full) | – | – | – | – | – | – | – | – | – | Relative stability [5]: inactive
5 | – | – | – | – | – | – | – | – | – | – | – | C=C1C[C@@]23O[C@]2(c2ccccc21)C1CC(OC(=O)[C@H](O)[C@@H](NC(=O)OCC)c2ccc(OCc4ccccc4)cc2)C3(C)C1(C)C (stereo not given in full) | – | – | – | – | – | – | – | – | – | Relative stability [6]: inactive
